Measured values published in patent US9340590B2 (priority 2011, dated 2016).
Positions of bridges follow the written chain, without caps; N, C: chain ends. Residues, ends and D or L forms follow the SMILES beside them.

Assays:
Test in all cases: cell-based
hNav1.5 = hNav1.5 (Homo sapiens, UniProt Q14524); conditions: IonWorks Quattro, use-dependent block, hNav1.5; read-out: IWQ Use Nav1.5
hNav1.7 = hNav1.7 (Homo sapiens, UniProt Q15858); assay type: cell-based; conditions: IonWorks Quattro, use-dependent block, hNav1.7; read-out: IWQ Use Nav1.7
Chain of hNav1.7 (Q15858 whole entry, looked up): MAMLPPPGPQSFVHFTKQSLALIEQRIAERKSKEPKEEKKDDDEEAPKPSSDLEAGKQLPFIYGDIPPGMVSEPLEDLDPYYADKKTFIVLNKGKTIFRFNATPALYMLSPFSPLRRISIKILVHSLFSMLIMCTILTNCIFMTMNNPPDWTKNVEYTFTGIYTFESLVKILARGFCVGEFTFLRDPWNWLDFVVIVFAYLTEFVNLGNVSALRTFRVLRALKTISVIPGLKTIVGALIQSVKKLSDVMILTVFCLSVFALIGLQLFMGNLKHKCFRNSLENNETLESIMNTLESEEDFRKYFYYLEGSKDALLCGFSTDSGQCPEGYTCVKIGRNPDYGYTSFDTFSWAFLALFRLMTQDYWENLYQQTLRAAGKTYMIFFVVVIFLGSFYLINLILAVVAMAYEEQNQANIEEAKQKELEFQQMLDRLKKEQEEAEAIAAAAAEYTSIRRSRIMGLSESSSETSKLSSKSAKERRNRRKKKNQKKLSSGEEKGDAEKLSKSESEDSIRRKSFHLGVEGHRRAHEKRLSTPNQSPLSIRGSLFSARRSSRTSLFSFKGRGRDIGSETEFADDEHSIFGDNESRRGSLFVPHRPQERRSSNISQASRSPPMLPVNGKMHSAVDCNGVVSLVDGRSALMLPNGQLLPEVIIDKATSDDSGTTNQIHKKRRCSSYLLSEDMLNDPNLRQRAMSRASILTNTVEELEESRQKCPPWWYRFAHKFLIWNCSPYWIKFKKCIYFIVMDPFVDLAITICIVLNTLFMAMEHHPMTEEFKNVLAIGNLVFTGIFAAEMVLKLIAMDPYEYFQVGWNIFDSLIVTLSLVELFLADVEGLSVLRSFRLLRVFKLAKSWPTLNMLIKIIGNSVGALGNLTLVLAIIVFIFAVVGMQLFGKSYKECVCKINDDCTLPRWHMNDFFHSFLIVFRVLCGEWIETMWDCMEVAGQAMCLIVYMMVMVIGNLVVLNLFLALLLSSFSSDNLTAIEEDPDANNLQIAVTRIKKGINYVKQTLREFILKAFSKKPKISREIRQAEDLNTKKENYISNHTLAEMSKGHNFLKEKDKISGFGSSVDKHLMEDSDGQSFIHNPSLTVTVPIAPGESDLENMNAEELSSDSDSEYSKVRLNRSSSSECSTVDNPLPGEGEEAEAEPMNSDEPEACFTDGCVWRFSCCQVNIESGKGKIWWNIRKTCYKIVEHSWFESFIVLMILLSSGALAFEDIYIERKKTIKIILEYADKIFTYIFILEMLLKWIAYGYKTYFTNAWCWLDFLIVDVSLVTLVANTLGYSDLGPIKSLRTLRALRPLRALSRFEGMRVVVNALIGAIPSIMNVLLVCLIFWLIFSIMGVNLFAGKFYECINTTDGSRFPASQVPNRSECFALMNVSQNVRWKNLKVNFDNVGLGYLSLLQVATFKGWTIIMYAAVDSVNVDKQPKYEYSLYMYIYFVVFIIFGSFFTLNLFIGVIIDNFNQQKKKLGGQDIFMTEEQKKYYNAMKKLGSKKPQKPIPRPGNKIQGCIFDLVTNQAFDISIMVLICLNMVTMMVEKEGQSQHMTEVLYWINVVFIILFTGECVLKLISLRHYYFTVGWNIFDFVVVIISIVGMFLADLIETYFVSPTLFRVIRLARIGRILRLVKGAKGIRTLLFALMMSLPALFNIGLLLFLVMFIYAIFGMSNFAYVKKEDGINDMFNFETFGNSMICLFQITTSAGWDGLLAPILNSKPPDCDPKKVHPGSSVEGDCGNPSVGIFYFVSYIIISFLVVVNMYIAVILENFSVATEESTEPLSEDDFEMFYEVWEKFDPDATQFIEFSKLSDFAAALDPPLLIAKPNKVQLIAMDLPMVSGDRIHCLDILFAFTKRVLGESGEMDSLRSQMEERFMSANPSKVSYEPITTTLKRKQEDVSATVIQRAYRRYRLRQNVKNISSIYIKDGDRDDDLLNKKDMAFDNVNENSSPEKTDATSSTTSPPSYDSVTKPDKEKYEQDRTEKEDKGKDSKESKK

hNav1.3 = hNav1.3 (Homo sapiens, UniProt Q9NY46); conditions: IonWorks Quattro, use-dependent block, hNav1.3; read-out: IWQ Use Nav1.3

Chain of hNav1.5 (Q14524 whole entry, looked up): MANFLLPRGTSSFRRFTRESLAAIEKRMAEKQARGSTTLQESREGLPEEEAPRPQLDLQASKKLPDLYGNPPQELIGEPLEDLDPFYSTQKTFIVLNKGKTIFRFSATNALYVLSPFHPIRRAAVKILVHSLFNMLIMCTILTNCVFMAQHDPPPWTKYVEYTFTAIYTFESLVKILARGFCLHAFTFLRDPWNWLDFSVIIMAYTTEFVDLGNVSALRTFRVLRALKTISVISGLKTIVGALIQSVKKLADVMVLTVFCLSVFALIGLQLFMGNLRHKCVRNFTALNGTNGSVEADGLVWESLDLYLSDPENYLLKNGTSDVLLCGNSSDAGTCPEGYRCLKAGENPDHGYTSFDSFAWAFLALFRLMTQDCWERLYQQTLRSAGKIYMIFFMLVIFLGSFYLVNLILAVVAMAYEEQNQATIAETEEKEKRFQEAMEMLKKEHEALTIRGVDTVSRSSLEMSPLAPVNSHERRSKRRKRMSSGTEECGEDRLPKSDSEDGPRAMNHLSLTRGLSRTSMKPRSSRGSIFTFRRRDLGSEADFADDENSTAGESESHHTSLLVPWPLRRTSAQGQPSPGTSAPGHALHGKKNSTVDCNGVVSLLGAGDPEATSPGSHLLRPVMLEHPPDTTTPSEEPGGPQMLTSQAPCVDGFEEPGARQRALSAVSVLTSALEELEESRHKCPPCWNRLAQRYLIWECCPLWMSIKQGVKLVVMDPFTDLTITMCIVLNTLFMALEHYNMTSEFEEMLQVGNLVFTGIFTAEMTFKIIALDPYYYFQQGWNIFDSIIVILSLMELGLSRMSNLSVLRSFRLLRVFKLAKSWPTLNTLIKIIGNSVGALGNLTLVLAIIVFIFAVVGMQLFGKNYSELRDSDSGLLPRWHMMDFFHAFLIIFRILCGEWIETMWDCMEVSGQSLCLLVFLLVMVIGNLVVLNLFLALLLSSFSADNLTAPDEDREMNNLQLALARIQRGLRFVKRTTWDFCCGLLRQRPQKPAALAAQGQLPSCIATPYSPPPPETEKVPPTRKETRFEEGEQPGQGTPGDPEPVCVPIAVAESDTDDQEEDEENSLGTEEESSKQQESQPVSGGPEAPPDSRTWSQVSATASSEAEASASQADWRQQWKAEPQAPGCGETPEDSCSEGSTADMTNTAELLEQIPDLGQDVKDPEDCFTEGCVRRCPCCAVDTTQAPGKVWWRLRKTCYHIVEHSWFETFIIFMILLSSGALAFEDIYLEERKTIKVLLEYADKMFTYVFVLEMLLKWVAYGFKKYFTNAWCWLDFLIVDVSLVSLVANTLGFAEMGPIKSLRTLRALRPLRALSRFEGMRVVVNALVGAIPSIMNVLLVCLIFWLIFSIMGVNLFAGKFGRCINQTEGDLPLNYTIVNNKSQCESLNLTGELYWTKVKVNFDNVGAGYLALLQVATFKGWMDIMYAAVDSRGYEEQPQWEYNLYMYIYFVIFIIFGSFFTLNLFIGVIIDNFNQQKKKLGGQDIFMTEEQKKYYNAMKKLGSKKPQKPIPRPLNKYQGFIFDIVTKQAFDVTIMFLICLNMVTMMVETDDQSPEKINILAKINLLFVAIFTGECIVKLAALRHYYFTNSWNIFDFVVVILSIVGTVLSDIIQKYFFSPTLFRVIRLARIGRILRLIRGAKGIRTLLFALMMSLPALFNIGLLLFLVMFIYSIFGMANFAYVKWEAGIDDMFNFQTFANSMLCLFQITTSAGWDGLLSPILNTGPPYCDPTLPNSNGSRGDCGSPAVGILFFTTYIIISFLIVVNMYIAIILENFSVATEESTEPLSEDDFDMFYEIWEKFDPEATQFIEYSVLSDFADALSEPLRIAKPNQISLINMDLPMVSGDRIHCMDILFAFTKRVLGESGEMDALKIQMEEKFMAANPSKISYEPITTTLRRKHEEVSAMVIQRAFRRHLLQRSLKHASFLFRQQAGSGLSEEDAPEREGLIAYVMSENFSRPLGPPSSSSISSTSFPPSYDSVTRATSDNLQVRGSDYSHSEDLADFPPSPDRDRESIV

Compound	IC50 (hNav1.5) [µM]	IC50 (hNav1.7) [µM]	IC50 (hNav1.3) [µM]
CC[C@H](C)[C@@H]1NC(=O)[C@@H]2CSSC[C@@H]3NC(=O)[C@H](C(C)C)NC(=O)[C@H](CC(C)C)NC(=O)[C@H](CC(N)=O)NC(=O)[C@@H]4CCCN4C(=O)[C@H](CCCNC(=N)N)NC(=O)[C@H](CSSC[C@H](NC(=O)[C@@H](N)CC(=O)O)C(=O)N[C@@H](CC(C)C)C(=O)N[C@@H](CCC(=O)O)C(=O)N[C@@H](C)C(=O)N[C@@H](CCSC)C(=O)N[C@@H](CCCNC(=N)N)C(=O)N[C@@H](CCCCN)C(=O)N2)NC(=O)[C@H](CSSC[C@@H](C(=O)N[C@@H](CCCCN)C(=O)N[C@@H](Cc2ccc(O)cc2)C(=O)N[C@H](C(=O)N[C@@H](Cc2ccccc2)C(N)=O)C(C)C)NC(=O)[C@H](Cc2c[nH]c4ccccc24)NC(=O)[C@H](CCCCN)NC(=O)[C@H](Cc2c[nH]cn2)NC(=O)[C@H]([C@@H](C)O)NC(=O)[C@H](CCCNC(=N)N)NC(=O)[C@H](CO)NC3=O)NC(=O)[C@H](CCCCN)NC(=O)[C@H](CC(=O)O)NC(=O)[C@H](CC(N)=O)NC(=O)[C@H](CC(=O)O)NC(=O)[C@@H]2CCCN2C1=O [compound 429] (H-DCLEAMRKCIPDNDKCCRPNLVCSRTHKWCKYVF-NH2; disulfide 2-17, 9-23, 16-30)	> 5	4.64	3.99
CC[C@H](C)[C@@H]1NC(=O)[C@@H]2CSSC[C@@H]3NC(=O)[C@H](C(C)C)NC(=O)[C@H](CC(C)C)NC(=O)[C@H](CC(N)=O)NC(=O)[C@@H]4CCCN4C(=O)[C@H](CCCNC(=N)N)NC(=O)[C@H](CSSC[C@H](NC(=O)[C@@H](N)CC(=O)O)C(=O)N[C@@H](CC(C)C)C(=O)NCC(=O)N[C@@H](C)C(=O)N[C@@H](CCSC)C(=O)N[C@@H](CCCNC(=N)N)C(=O)N[C@@H](CCCCN)C(=O)N2)NC(=O)[C@H](CSSC[C@@H](C(=O)N[C@@H](CCCCN)C(=O)N[C@@H](Cc2ccc(O)cc2)C(=O)N[C@H](C(=O)N[C@@H](CCC(=O)O)C(N)=O)C(C)C)NC(=O)[C@H](Cc2c[nH]c4ccccc24)NC(=O)[C@H](CCCCN)NC(=O)[C@H](Cc2c[nH]cn2)NC(=O)[C@H]([C@@H](C)O)NC(=O)[C@H](CCCNC(=N)N)NC(=O)[C@H](CO)NC3=O)NC(=O)[C@H](CCCCN)NC(=O)[C@H](CC(=O)O)NC(=O)[C@H](CC(N)=O)NC(=O)[C@H](CC(=O)O)NC(=O)[C@@H]2CCCN2C1=O [compound 430] (H-DCLGAMRKCIPDNDKCCRPNLVCSRTHKWCKYVE-NH2; disulfide 2-17, 9-23, 16-30)	> 5	> 5	> 5
CC[C@H](C)[C@@H]1NC(=O)[C@@H]2CSSC[C@@H]3NC(=O)[C@H](C(C)C)NC(=O)[C@H](CC(C)C)NC(=O)[C@H](CC(N)=O)NC(=O)[C@@H]4CCCN4C(=O)[C@H](CCCNC(=N)N)NC(=O)[C@H](CSSC[C@H](NC(=O)[C@@H](N)CC(=O)O)C(=O)N[C@@H](CC(C)C)C(=O)NCC(=O)N[C@@H](C)C(=O)N[C@@H](CCSC)C(=O)N[C@@H](CCCNC(=N)N)C(=O)N[C@@H](CCCCN)C(=O)N2)NC(=O)[C@H](CSSC[C@@H](C(=O)N[C@@H](CCCCN)C(=O)N[C@@H](Cc2ccc(O)cc2)C(=O)N[C@H](C(=O)N[C@@H](C)C(N)=O)C(C)C)NC(=O)[C@H](Cc2c[nH]c4ccccc24)NC(=O)[C@H](CCCCN)NC(=O)[C@H](Cc2c[nH]cn2)NC(=O)[C@H]([C@@H](C)O)NC(=O)[C@H](CCCNC(=N)N)NC(=O)[C@H](CO)NC3=O)NC(=O)[C@H](CCCCN)NC(=O)[C@H](CC(=O)O)NC(=O)[C@H](CC(N)=O)NC(=O)[C@H](CC(=O)O)NC(=O)[C@@H]2CCCN2C1=O [compound 431] (H-DCLGAMRKCIPDNDKCCRPNLVCSRTHKWCKYVA-NH2; disulfide 2-17, 9-23, 16-30)	> 5	> 5	> 5
